Reference: patent US12226410B2, “Methods for enhancing cellular clearance of pathological molecules via activation of the cellular protein ykt6” (NORTHWESTERN UNIVERSITY, priority 2019, dated 2025)

Tests used:
a-syn = assay: Sequential extraction/western blot of a-syn in FTI-treated A53T iPSn; assay type: cell-based, human; conditions: 5 nM, 7d
Protocol: FIGS. 6A, 6B, 6C, 6D, 6E, 6F, and 6G. FTIs enhance lysosomal GCase activity and reduce pathological a-syn by blocking ykt6 farnesylation. 6A) GCase activity in FTI-treated A53T iPSn at d80 (LNK-754 5 nM, 5d). 6B) GCase activity in FTI-treated A53T iPSn expressing empty vector (vect) or ykt6-CS (n=4). 6C) Lysosomal GCase activity was assessed in FTI-treated SHSY5Y cells transfected with scrambled or ykt6 shRNA (KD) (n=3). 6D) Quantification of Triton X-100 soluble (T-sol) a-syn by western blot from FTI-treated A53T iPSn (5 nM, 7d). *, non-specific band. (n=3). 6E) Quantification of insoluble a-syn from A53T iPSn as in D (n=3). 6F) Insoluble a-syn in FTI-treated H4 cells (5 nM, 5 days) transfected with either scrambled or ykt6 shRNA (n=6). 6G) Neuron viability was assessed in FTI-treated A53T iPSn (5 nM, 14d from d86-d100) by quantification of neurofilament protein. Right, neuron viability in FTI-treated A53T iPSn expressing empty vector or ykt6-CS (n=4). Values are the mean+/−SEM, *p<0.05, **p<0.01, ***p<0.001.
Sequential biochemical extraction for the analysis of pathological a-synuclein. […] Protein concentration was measured by BCA assay (Pierce). […]
Western blot analysis. […] The blots were washed as before and scanned/analyzed using an Odyssey infrared imaging system with Image Studio Software. […]

ykt6 = assay: Ykt6 membrane shift analysis (cytosol/membrane fractions) in FTI-treated cultures; assay type: cell-based, human; conditions: SH-SY5Y wt a-syn cells and A53T iPSn; 5 nM, 5 days
Protocol: FIGS. 5A, 5B, 5C, 5D, 5E, 5F, and 5G. Reducing farnesyl-ykt6 enhances SNARE assembly and improves the lysosomal targeting of GCase. 5A) Ykt6 membrane shift analysis of SH-SY5Y cells expressing GFP-ykt6 wt or CS (n=3). 5B) Co-IP of GFP-ykt6 and bet1 in A53T iPSn (n=3). 5C) Ykt6 membrane shift analysis in FTI-treated SH-SY5Y wt a-syn cells or A53T iPSn (5 nM farnesyltransferase inhibitors (FTI) LNK-754 (FTI-1) or LNK-3248 (FTI-2) for 5 days) (n=4). Sec22b was measured to assess specificity. 5D) SEC/western blot of FTI-1 treated SH-SY5Y cells. Quantification is shown below. 5E) Co-IP of GFP-ykt6 wt or mutant ykt6-SS, (cannot be palmitoylated or farnesylated) in FTI-treated SHSY5Y cells (5 nM LNK-754, 5d) (n=2). 5F) Immunofluorescence of GCase and LAMP2A in FTI-treated H4 a-syn cells transfected with scrambled (scrb) or ykt6 shRNA (n=3). Scale bar=10 um. 5G) GCase maturation analysis in FTI-treated A53T iPSn by endo H (n=3). Values are the mean+/−SEM, *p<0.05.
Separation of lysates into cytosol and membrane fractions. […] Fractions were then analyzed by western blot analysis as described below. The samples were not analyzed in a blinded manner.
Treatment of cultures with farnesyltransferase inhibitors. […] Cultures were harvested and analyzed as described in the above sections.

C#Cc1cccc(-c2cc(=O)n(C)c3ccc([C@](O)(c4ccc(Cl)cc4)c4cncn4C)cc23)c1 [LNK-754]
soluble and insoluble levels of a-syn (C20, syn303) (a-syn): reduced
membrane association of ykt6 (ykt6): increased membrane association of ykt6
sec22b levels (specificity) (ykt6): did not change
